Measured values taken from the NIST ThermoML archive (doi:10.1021/je900732r).
“And” between values parts separate entries of the source, which are not always exact repeats. Identical values can stand only once.

Columns and labels:
[1] = Liquid; for mass density: 101 kPa
[2] = mn = molality of the nth substance listed, in mol/kg; conditions: 101 kPa, Liquid

CO [methanol]
[1]
Conditions | mass density
283.15 K | 800.55 kg/m3 and 800.541 kg/m3 and 800.548 kg/m3
288.15 K | 795.872 kg/m3 and 795.866 kg/m3 and 795.857 kg/m3
293.15 K | 791.172 kg/m3 and 791.169 kg/m3 and 791.162 kg/m3
298.15 K | 786.46 kg/m3 and 786.452 kg/m3 and 786.464 kg/m3
303.15 K | 781.742 kg/m3 and 781.733 kg/m3 and 781.722 kg/m3
308.15 K | 776.992 kg/m3 and 776.979 kg/m3 and 776.978 kg/m3
313.15 K | 772.214 kg/m3 and 772.189 kg/m3 and 772.2 kg/m3

Conditions | speed of sound [m/s]
[1], 298.15 K, 101.33 kPa, Pulse-echo method | 1101.2

[Co+2].[O-][Cl+3]([O-])([O-])[O-].[O-][Cl+3]([O-])([O-])[O-] [cobalt(II) perchlorate] + C[S+](C)[O-]
mass density [kg/m3], [2]
Conditions | 293.15 K | 298.15 K | 303.15 K | 313.15 K | 323.15 K | 333.15 K
m1 = 0.01481 | 1103.37 | 1098.35 | 1093.34 | 1083.31 | 1073.29 | 1063.26
m1 = 0.0215 | 1104.79 | 1099.78 | 1094.77 | 1084.75 | 1074.74 | 1064.73
m1 = 0.03236 | 1107.1 | 1102.1 | 1097.1 | 1087.09 | 1077.1 | 1067.1
m1 = 0.04309 | 1109.4 | 1104.4 | 1099.41 | 1089.42 | 1079.44 | 1069.46
m1 = 0.05528 | 1112.02 | 1107.03 | 1102.04 | 1092.06 | 1082.1 | 1072.14
m1 = 0.06505 | 1114.13 | 1109.14 | 1104.15 | 1094.2 | 1084.25 | 1074.3
m1 = 0.08726 | 1118.94 | 1113.97 | 1109 | 1099.07 | 1089.15 | 1079.22
m1 = 0.1069 | 1123.24 | 1118.27 | 1113.31 | 1103.39 | 1093.51 | 1083.61
m1 = 0.1285 | 1127.98 | 1123.03 | 1118.08 | 1108.19 | 1098.33 | 1088.47
m1 = 0.148 | 1132.32 | 1127.38 | 1122.44 | 1112.57 | 1102.73 | 1092.9
m1 = 0.1695 | 1137.12 | 1132.18 | 1127.26 | 1117.42 | 1107.6 | 1097.8
m1 = 0.1911 | 1141.97 | 1137.05 | 1132.14 | 1122.33 | 1112.53 | 1102.76
m1 = 0.2111 | 1146.48 | 1141.57 | 1136.67 | 1126.88 | 1117.12 | 1107.38

C[S+](C)[O-] [dimethyl sulfoxide] + [Mn+2].[O-][Cl+3]([O-])([O-])[O-].[O-][Cl+3]([O-])([O-])[O-]
[2], m2 = 0
Conditions | mass density [kg/m3]
293.15 K | 1100.22
298.15 K | 1095.19
303.15 K | 1090.17
313.15 K | 1080.12
323.15 K | 1070.08
333.15 K | 1060.04

C[S+](C)[O-] [dimethyl sulfoxide] + [Ni+2].[O-][Cl+3]([O-])([O-])[O-].[O-][Cl+3]([O-])([O-])[O-]
[2], m2 = 0
Conditions | mass density [kg/m3]
293.15 K | 1100.22
298.15 K | 1095.19
303.15 K | 1090.17
313.15 K | 1080.12
323.15 K | 1070.08
333.15 K | 1060.04

C[S+](C)[O-] [dimethyl sulfoxide]
[1]
Conditions | mass density
293.15 K | 1100.22 kg/m3 and 1100.23 kg/m3
298.15 K | 1095.19 kg/m3 and 1095.2 kg/m3
303.15 K | 1090.17 kg/m3 and 1090.18 kg/m3
313.15 K | 1080.12 kg/m3 and 1080.12 kg/m3
323.15 K | 1070.08 kg/m3 and 1070.08 kg/m3
333.15 K | 1060.04 kg/m3 and 1060.03 kg/m3
